Test results published in patent US20260217651A1 (priority 2022, published 2026).

Test system: SD rats
Assay: animal or person
Format: in vivo, rat
Conditions: iv; for minimal effective dose: Rattus norvegicus, read-out: Minimal effective anesthetic dose(mg/kg); for Onset time / Righting Reflex Duration / Sedation Duration: rat, in vivo

Compound | minimal effective dose | Onset time | Righting Reflex Duration | Sedation Duration
COC(=O)N(c1ccccc1)C1CCN(c2cc(C(C)C)c(O)c(C(C)C)c2)CC1 [Cpd-3] | < 5 mg/kg | 0.20 to 0.67 min | 5.83 to 22.20 min | 24.65 to 38.02 min
CCC(=O)N(C1CC1)C1CCN(c2cc(C(C)C)c(O)c(C(C)C)c2)CC1 [Cpd-5] | 5 to 10 mg/kg | 0.45 min | 6.40 min | 17.12 min
COC(=O)CN(C1CC1)C1CCN(c2cc(C(C)C)c(O)c(C(C)C)c2)CC1 [Cpd-8] | 5 to 10 mg/kg | 0.40 min | 7.73 min | 17.93 min
COC(=O)CN(c1ccccc1)C1CCN(c2cc(C(C)C)c(O)c(C(C)C)c2)CC1 [Cpd-10] | 5 to 10 mg/kg | 0.42 to 0.45 min | 6.47 to 27.50 min | 47.22 to 66.70 min
CC(=O)N(c1ccccc1)C1CCN(c2cc(C(C)C)c(O)c(C(C)C)c2)CC1 [Cpd-12] | 10 to 20 mg/kg | 0.45 min | 6.85 min | 55.12 min
CC(C)C(=O)N(c1ccccc1)C1CCN(c2cc(C(C)C)c(O)c(C(C)C)c2)CC1 [Cpd-14] | 5 to 10 mg/kg | 0.48 min | 17.60 min | 42.83 min
CC(C)OC(=O)N(c1ccccc1)C1CCN(c2cc(C(C)C)c(O)c(C(C)C)c2)CC1 [Cpd-15] | 5 to 10 mg/kg | 0.67 min | 16.28 min | 29.90 min
CCC(=O)N(c1ccccc1)C1CCN(c2cc(C(C)C)c(O)c([C@H](C)C3CC3)c2)CC1 [Cpd-18] | 5 to 10 mg/kg | 0.20 to 0.57 min | 5.55 to 20.30 min | 26.77 to 47.53 min
CCOC(=O)C1(c2ccccn2)CCN(c2cc(C(C)C)c(O)c(C(C)C)c2)CC1.Cl [Cpd-23] | 10 to 20 mg/kg | 0.53 min | 13.95 min | 41.02 min
CCOC(=O)C1(c2ccc(F)cc2F)CCN(c2cc(C(C)C)c(O)c(C(C)C)c2)CC1 [Cpd-27] | 20 to 40 mg/kg | 1.47 min | 36.80 min | 67.40 min
CCC(=O)N(CC1CCN(c2cc(C(C)C)c(O)c(C(C)C)c2)CC1)c1ccccc1 [Cpd-32] | 5 to 10 mg/kg | 0.52 min | 2.67 min | 19.68 min
CCOC(=O)C1(c2ccccc2F)CCN(c2cc(C(C)C)c(O)c(C(C)C)c2)CC1 [Cpd-34] | 10 to 20 mg/kg | 0.88 min | 10.28 min | 29.75 min
CCOC(=O)C1(c2cccc(Cl)c2)CCN(c2cc(C(C)C)c(O)c(C(C)C)c2)CC1 [Cpd-37] | 5 to 10 mg/kg | 2.63 min | 0.65 min | 21.73 min
CCC(=O)N(c1cc(C(C)C)c(O)c([C@H](C)C2CC2)c1)N1CCN(CCC(=O)OC)CC1 [Cpd-50] | 20 to 40 mg/kg | 1.03 min | 1.47 min | 66.48 min
CCOC(=O)N(c1ccccc1)N1CCN(c2cc(C(C)C)c(O)c(C(C)C)c2)CC1 [Cpd-51] | 5 to 10 mg/kg | 0.65 to 0.97 min | 2.52 to 14.47 min | 22.27 to 35.75 min
CC(C)OC(=O)N(c1ccccc1)N1CCN(c2cc(C(C)C)c(O)c(C(C)C)c2)CC1 [Cpd-52] | 5 to 10 mg/kg | 0.52 to 0.98 min | 13.92 to 16.42 min | 28.53 to 94.30 min
